Measured values: US10376499B2, “Combination therapy for treatment of resistant bacterial infections” (priority 2014, dated 2019)
≈ marks a conversion by molar mass, not a printed value.

Key:
[1] = system: Klebsiella pneumoniae; test: MIC, recent Enterobacteriaceae clinical isolates: Klebsiella pneumoniae (Examples 7, 11)
[2] = system: A. baumannii; test: MIC by broth microdilution (CLSI), panel of 60 A. baumannii clinical isolates (Example 1); conditions: Acinetobacter baumannii
[3] = system: A. baumannii; test: MIC90 of common antibiotics+compound 1, 196 contemporary clinical isolates of A. baumannii (Example 4); conditions: B-lactam + Cmpd 1 (4 μg/mL)

**Q.** What does the source list for `CC1(C)[C@H](C(=O)O)N2C(=O)C[C@H]2S1(=O)=O` [Sulbactam, (2S,5R)-3,3-dimethyl-7-oxo-4-thia-1-azabicyclo[3.2.0]heptane-2-carboxylic acid 4,4-dioxide]?
**A.** MIC ([1]; Klebsiella pneumoniae ARC4467, SHV-33, TEM-1, OXA-1, DHA-1): 64 µg/mL (≈ 274 µM); MIC ([1]; Klebsiella pneumoniae ARC4468, SHV-1): 64 µg/mL (≈ 274 µM); MIC ([1]; Klebsiella pneumoniae ARC4476, SHV-11, KPC-2, OXA-9[W117*]): > 256 µg/mL; MIC ([1]; Klebsiella pneumoniae ARC4482, SHV-27[A122V], OXA-1): 32 µg/mL (≈ 137 µM); MIC ([1]; Klebsiella pneumoniae ARC4486, SHV-11, DHA-1, OXA-1[E69K]): 128 µg/mL (≈ 549 µM); MIC ([1]; Klebsiella pneumoniae ARC4488, SHV-11, CTX-M15, OXA-1, TEM-1): 64 µg/mL (≈ 274 µM); MIC ([1]; Klebsiella pneumoniae ARC4490, SHV-11, CTX-M15, KPC-2, OXA-1): 256 µg/mL (≈ 1100 µM); MIC50 [2]: 16 µg/mL (≈ 68.6 µM); MIC90 [2]: 32 µg/mL (≈ 137 µM); MIC ([2]; strain ARC593, OXA-98): 1 µg/mL (≈ 4.29 µM); MIC ([2]; strain ARC2058, OXA-95): 2 µg/mL (≈ 8.57 µM); MIC ([2]; strain ARC2461, OXA-66, TEM-1): 16 µg/mL (≈ 68.6 µM); MIC ([2]; strain ARC2462, TEM-1, OXA-66): 16 µg/mL (≈ 68.6 µM); MIC ([2]; strain ARC2598, OXA*, TEM-1, OXA-113): 16 µg/mL (≈ 68.6 µM); MIC ([2]; strain ARC2635, OXA-65, OXA-40, TEM-1): 32 µg/mL (≈ 137 µM); MIC ([2]; strain ARC2636, OXA-65, OXA-40, TEM-1): 32 µg/mL (≈ 137 µM); MIC ([2]; strain ARC2675, SHV-5, OXA-113): 16 µg/mL (≈ 68.6 µM); MIC ([2]; strain ARC2681, OXA-40, TEM-1, OXA-132): 16 µg/mL (≈ 68.6 µM); MIC ([2]; strain ARC2682, SHV-5, OXA-113): 4 µg/mL (≈ 17.1 µM); MIC ([2]; strain ARC2778, OXA-40, TEM-1, OXA-65): 16 µg/mL (≈ 68.6 µM); MIC ([2]; strain ARC2779 (A. baumannii/calcoaceticus complex), OXA-2, VIM-2): 16 µg/mL (≈ 68.6 µM); MIC ([2]; strain ARC2780 (A. baumannii/calcoaceticus complex), OXA*, OXA-2, IMP-1): 4 µg/mL (≈ 17.1 µM); MIC ([2]; strain ARC2782, OXA-66, OXA-23, TEM-1, PER-1): 32 µg/mL (≈ 137 µM); MIC ([2]; strain ARC3484, TEM-1, OXA-23, OXA-64): 16 µg/mL (≈ 68.6 µM); MIC ([2]; strain ARC3486, OXA-72, OXA-66, TEM-1): 32 µg/mL (≈ 137 µM); MIC ([2]; strain ARC3487, OXA-20, OXA-58, OXA-66): 4 µg/mL (≈ 17.1 µM); MIC ([2]; strain ARC3488, OXA*, OXA-68): 16 µg/mL (≈ 68.6 µM); MIC ([2]; strain ARC3489, OXA*, OXA-68): 2 µg/mL (≈ 8.57 µM); MIC ([2]; strain ARC3490, TEM-1+, PSE-2, OXA-69): 32 µg/mL (≈ 137 µM); MIC ([2]; strain ARC3491 (A. baumannii/calcoaceticus complex), OXA-215): 0.5 µg/mL (≈ 2.14 µM); MIC ([2]; strain ARC3492, OXA-40, OXA-132, TEM-1): 16 µg/mL (≈ 68.6 µM); MIC ([2]; strain ARC3493, OXA-40, OXA-66): 64 µg/mL (≈ 274 µM); MIC ([2]; strain ARC3494, OXA-65): 4 µg/mL (≈ 17.1 µM); MIC ([2]; strain ARC3495, OXA-40, OXA-109): 32 µg/mL (≈ 137 µM); MIC ([2]; strain ARC3513, TEM-1, OXA-23, OXA-65): 16 µg/mL (≈ 68.6 µM); MIC ([2]; strain ARC3657, OXA-130): 32 µg/mL (≈ 137 µM); MIC ([2]; strain ARC3658, OXA-66, PER-1, TEM-1, OXA-23): 32 µg/mL (≈ 137 µM); MIC ([2]; strain ARC3659, OXA-23, OXA*): 4 µg/mL (≈ 17.1 µM); MIC ([2]; strain ARC3882, OXA-23, NDM-1, OXA-10*): > 64 µg/mL; MIC ([2]; strain ARC5073, OXA-23, TEM-1, OXA-64, PER-1): 16 µg/mL (≈ 68.6 µM); MIC ([2]; strain ARC5074, GES*, TEM-1, OXA-51): 64 µg/mL (≈ 274 µM); MIC ([2]; strain ARC5075, SHV-5, OXA-113): 16 µg/mL (≈ 68.6 µM); MIC ([2]; strain ARC5076, TEM-1, OXA-23, OXA-66): 32 µg/mL (≈ 137 µM); MIC ([2]; strain ARC5077, OXA*, OXA-72): 32 µg/mL (≈ 137 µM); MIC ([2]; strain ARC5079, OXA-72, OXA-65): 32 µg/mL (≈ 137 µM); MIC ([2]; strain ARC5080, OXA-71, OXA-40): 32 µg/mL (≈ 137 µM); MIC ([2]; strain ARC5082, OXA-66, OXA-23): 64 µg/mL (≈ 274 µM); MIC ([2]; strain ARC5083, OXA-66, OXA-23): 16 µg/mL (≈ 68.6 µM); MIC ([2]; strain ARC5084, IMP-4(B), OXA-58, OXA-65): 4 µg/mL (≈ 17.1 µM); MIC ([2]; strain ARC5085, OXA*, TEM-1): 32 µg/mL (≈ 137 µM); MIC ([2]; strain ARC5086, OXA*, TEM-1, OXA-72, OXA-66): 32 µg/mL (≈ 137 µM); MIC ([2]; strain ARC5087, OXA-66, OXA-23): 32 µg/mL (≈ 137 µM); MIC ([2]; strain ARC5088, OXA-20, OXA-58, OXA-66): 16 µg/mL (≈ 68.6 µM); MIC ([2]; strain ARC5089, PER*, TEM-1, OXA-23, OXA-66): 32 µg/mL (≈ 137 µM); MIC90 [3]: 2 µg/mL
